From ChEMBL document CHEMBL4014265, “Crassins A-H, Diterpenoids from the Roots of Croton crassifolius” (J Nat Prod, 2017)

Legend:
HL-60 [1] = assay: Cytotoxicity against human HL60 cells assessed as growth inhibition at 20 uM after 72 hrs by MTT assay relative to control; format: functional; settings: HL-60, 72 h, read-out: GI
A549 [2] = assay: Cytotoxicity against human A549 cells assessed as growth inhibition at 20 uM after 72 hrs by SRB assay relative to control; format: functional; settings: A549, 72 h, read-out: GI
HL-60 [3] = assay: Cytotoxicity against human HL60 cells assessed as growth inhibition after 72 hrs by MTT assay; format: functional, cell-based; settings: HL-60, 72 h
A549 [4] = assay: Cytotoxicity against human A549 cells assessed as growth inhibition after 72 hrs by SRB assay; format: functional, cell-based; settings: A549, 72 h

| Compound | inhibition of growth at 20 µM (HL-60 [1]) [%] | inhibition of growth at 20 µM (A549 [2]) [%] | IC50 (HL-60 [3]) [µM] | IC50 (A549 [4]) [µM] |
| --- | --- | --- | --- | --- |
| COC(=O)[C@]1(C)CCCC2=C1CC[C@@H](C)[C@]2(C)CCC1=CC(=O)O[C@H]1O | > 50 | > 50 | 11.8 | 5.2 |
| COC(=O)[C@@]1(C)CC(=O)C2=C(c3ccoc3)C[C@]3(C)C2=C1CC[C@H]3C | > 50 | > 50 | 10.5 | 8.4 |
